Like-named read-outs stand apart in the source and are kept apart here.
Experiments:
[1] = system: glioblastoma (GL261 cells); assay: Histological colocalization of fluorescence signal and tumor (Manders' coefficients); assay type: in vivo, C57BL/6 mouse; conditions: 120 mg/kg intraperitoneally, 4 h post-injection
Procedure: We equally analyzed the histological colocalization of the fluorescence signal and cancer cells. […] Frozen sectioning was performed after fixation of the brain specimen in Tissue‐Tek O.C.T. using a cryostat. The fixed tissue was sliced axially at 30 μm thickness and mounted on a slide for immediate fluorescence micro imaging with the BZ‐X800. Multiple slices were performed across the tumor. Subsequently, we stained some slices with H&E according to common standard procedure, and imaged them with BZ‐X800 or Vectra Polaris. […] The mouse was euthanized and prepared for section imaging at 4 h post‐injection. The 5‐ALA emission was collected with an excitation filter (545 ± 25 nm), dichromatic mirror (565 nm), and a barrier filter (605 ± 70 nm). Quantification of the colocalization of tumor on H&E staining, 5‐ALA, and NIR were performed with the JACoP plugin for ImageJ using the Manders' coefficients.[28] Values of these coefficients range from 0 to 1 and express the fraction of intensity in a channel located in pixels where there is above threshold intensity in the other color channel.

[2] = cited from earlier work; for brightness (NIR-I) higher than ICG: 100 μM
Description: Near‐infrared fluorescence imaging technology is widely used for FGS due to its non‐invasive, real‐time, and multi‐dimensional monitoring characteristics. The combination of the reducing photon scattering, light absorption, and tissue autofluorescence provides a clear view deep into the body, capable of extraordinarily high SBR that are only accomplishable when moving from the NIR‐I to NIR‐II region. Because some organic dyes are relatively easy to synthesize, modifiable, and have low biological toxicity, several studies recently explored clinically approved or commercially available NIR‐I cya ...

GRPR of GL261 cell line = biological target: T1, GRPR of GL261 cell line (Mus musculus, UniProt P21729); assay: Targeted cell imaging (uptake and RM26 blocking); assay type: cell-based; conditions: 500 μM RM26 before 100 μM IRDye800-RM26, imaged after 1 h
T1 construct: host or cells: GL261 (stably expressing firefly luciferase)
Description: Subsequently, we washed the cells with 1 × PBS 3 times and scanned then using fluorescence microscopy (BZ‐X800; KEYENCE, Japan). The NIR emission was collected with an excitation filter (775 ± 50 nm), dichromatic mirror (810 nm), and a barrier filter (845 ± 55 nm).

T1 sequence (P21729 whole entry): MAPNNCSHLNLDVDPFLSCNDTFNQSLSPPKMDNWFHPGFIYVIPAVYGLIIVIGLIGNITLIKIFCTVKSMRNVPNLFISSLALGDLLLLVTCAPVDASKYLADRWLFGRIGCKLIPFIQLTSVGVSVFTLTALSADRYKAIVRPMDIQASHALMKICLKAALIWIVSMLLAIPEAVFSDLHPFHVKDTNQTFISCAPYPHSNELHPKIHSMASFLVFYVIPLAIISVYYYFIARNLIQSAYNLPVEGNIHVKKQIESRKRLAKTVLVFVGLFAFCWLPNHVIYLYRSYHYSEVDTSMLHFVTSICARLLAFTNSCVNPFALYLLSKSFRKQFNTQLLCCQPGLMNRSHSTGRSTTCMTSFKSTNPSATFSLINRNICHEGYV

NCC(=O)CCC(=O)O [5-ALA, 5‐aminolevulinic acid]
fraction of glioblastoma on 5-ALA overlapping tumor on H&E (Manders' coefficient) [1]: 99.8% | fraction of tumor on H&E overlapping tumor on 5-ALA (Manders' coefficient) [1]: 63.8%

CC1(C)C(/C=C/C2=C(Oc3ccc(S(=O)(=O)O)cc3)C(=C/C=C3/N(CCCCS(=O)(=O)O)c4ccc(S(=O)(=O)[O-])cc4C3(C)C)/CCC2)=[N+](CCCCCC(=O)O)c2ccc(S(=O)(=O)O)cc21 [IRDye800]
brightness (NIR-I) higher than ICG ([2]; FBS): 1.8 fold | quantum yield (QY) ([2]; NIR-I, serum): 12% | brightness (NIR-I) higher than ICG ([2]; PBS): 3.3 fold

CC1(C)C(/C=C/C=C/C=C/C=C2\N(CCCCS(=O)(=O)O)c3ccc4ccccc4c3C2(C)C)=[N+](CCCCS(=O)(=O)[O-])c2ccc3ccccc3c21 [ICG, indocyanine green]
brightness relative to IRDye800CW ([2]; bovine blood, 0.01 mg/mL): 12.3 times | concentration with maximum fluorescence intensity ([2]; in BSA): 10000 to 20000 ng/mL

D‐Phe‐Gln‐Trp‐Ala‐Val‐Gly‐His‐Sta‐Leu‐NH2 [RM26]
effect of RM26 blocking on IRDye800-RM26 uptake (GRPR of GL261 cell line): reduced

From paper PMC10354759, “Preclinical assessment of IRDye800CW‐labeled gastrin‐releasing peptide receptor‐targeting peptide for near infrared‐II imaging of brain malignancies” (Bioengineering & Translational Medicine, 2023)
